From patent US10039770B2, “Prostaglandin F2Alpha and analogues thereof for treating atrophic cutaneous scarring” (Galderma S.A., priority 2013, dated 2018)

Assays:
synovial fibroblast = settings: in culture; cited from earlier work
atrophic cutaneous scar = experiment: Topical treatment of an atrophic cutaneous scar in a human (case example); format: in vivo; settings: aqueous solution 0.004% topical once daily
Experimental: FIG. 1 A. depicts a 6 month old atrophic cutaneous scar secondary to dermatologic surgery present on the abdomen of a person prior to treatment. During the 3 to 4 months prior to starting topical treatment with PGF 2α analog, the scar had not qualitatively changed in structure or appearance. […] The scar was then treated with an aqueous solution of topical travoprost 0.004% which was digitally massaged onto the scar surface once daily for several weeks. FIGS. 1B through J depict the appearance of the same scar at one week intervals during the treatment period.

skin (Sc)fibroblasts = settings: exogenous administration; mice with a mutated form of α2AP; cited from earlier work

Row | Compound | synovial fibroblast collagen production, cell proliferation and cell migration (synovial fibroblast) | Langer lines across the previously scarred skin (atrophic cutaneous scar; at 8 weeks) | surrounding skin: keloid formation, atrophy or pigmentation (atrophic cutaneous scar; at all time points) | other adverse reactions (atrophic cutaneous scar; during or after the treatment interval) | erythema of the scar (atrophic cutaneous scar; over 9 weeks of treatment) | transition of the border between the scar tissue and normal surrounding skin (atrophic cutaneous scar; over 9 weeks of treatment) | fibrosis and thickening of the atrophic areas of the scar (atrophic cutaneous scar; person, abdominal scar, over 9 weeks of treatment) | bleomycin-induced collagen production / fibrosis in mutant (Sc)fibroblast strain (skin (Sc)fibroblasts)
1 | transforming growth factor β | not | – | – | – | – | – | – | –
2 | CC(C)OC(=O)CCC/C=C\C[C@@H]1[C@@H](/C=C/[C@@H](O)COc2cccc(C(F)(F)F)c2)[C@H](O)C[C@@H]1O [travoprost] | – | normal appearing Langer lines are apparent | no evidence of keloid formation, atrophy or pigmentation | No other adverse reactions were noted | decrease in erythema | visibly smoother transition of the border between the scar tissue and normal surrounding skin | gradual increase in fibrosis and thickening of the atrophic areas of the scar | –
3 | Prostaglandin F 2α [PGF 2α] | stimulated | – | – | – | – | – | – | reversed the attenuation and this resulted in dermal thickening and fibrosis
